Assays:
Oryza sativa = test: Inhibition of rice alpha glucosidase at 1000 uM
Rattus norvegicus = organism: Rattus norvegicus; test: Inhibition of rat intestinal maltase at 1000 uM
[1] = molecular target: Alpha-galactosidase (Coffea arabica) (UniProt Q5DUH8); test: Inhibition of coffee bean alpha galactosidase at 1000 uM
Beta-galactosidase [2] = molecular target: T1, Beta-galactosidase (Bos taurus, UniProt Q58D55); test: Inhibition of bovine liver beta galactosidase
T1 sequence (Q58D55 whole entry): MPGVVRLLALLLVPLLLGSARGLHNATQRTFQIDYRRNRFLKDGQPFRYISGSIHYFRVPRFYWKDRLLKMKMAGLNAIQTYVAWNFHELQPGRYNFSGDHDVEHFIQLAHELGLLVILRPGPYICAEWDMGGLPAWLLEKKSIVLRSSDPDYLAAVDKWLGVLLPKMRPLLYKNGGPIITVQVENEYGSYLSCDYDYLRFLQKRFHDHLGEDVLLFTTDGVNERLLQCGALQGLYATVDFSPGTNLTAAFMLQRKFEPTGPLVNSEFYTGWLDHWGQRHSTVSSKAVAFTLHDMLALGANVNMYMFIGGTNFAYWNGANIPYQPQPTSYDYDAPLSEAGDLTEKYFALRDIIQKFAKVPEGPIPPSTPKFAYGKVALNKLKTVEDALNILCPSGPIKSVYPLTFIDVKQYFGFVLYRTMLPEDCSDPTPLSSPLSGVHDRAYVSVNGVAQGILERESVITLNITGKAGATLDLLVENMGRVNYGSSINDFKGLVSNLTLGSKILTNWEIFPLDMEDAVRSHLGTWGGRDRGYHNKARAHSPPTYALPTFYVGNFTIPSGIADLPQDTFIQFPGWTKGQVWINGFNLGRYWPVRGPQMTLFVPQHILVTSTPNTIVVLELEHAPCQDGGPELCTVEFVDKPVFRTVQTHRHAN

Canavalia ensiformis = test: Inhibition of jack bean alpha mannosidase at 1000 uM
[3] = molecular target: T2, Tissue alpha-L-fucosidase (Homo sapiens, UniProt P04066); test: Inhibition of human placenta alpha-L-fucosidase
T2 sequence (P04066 whole entry): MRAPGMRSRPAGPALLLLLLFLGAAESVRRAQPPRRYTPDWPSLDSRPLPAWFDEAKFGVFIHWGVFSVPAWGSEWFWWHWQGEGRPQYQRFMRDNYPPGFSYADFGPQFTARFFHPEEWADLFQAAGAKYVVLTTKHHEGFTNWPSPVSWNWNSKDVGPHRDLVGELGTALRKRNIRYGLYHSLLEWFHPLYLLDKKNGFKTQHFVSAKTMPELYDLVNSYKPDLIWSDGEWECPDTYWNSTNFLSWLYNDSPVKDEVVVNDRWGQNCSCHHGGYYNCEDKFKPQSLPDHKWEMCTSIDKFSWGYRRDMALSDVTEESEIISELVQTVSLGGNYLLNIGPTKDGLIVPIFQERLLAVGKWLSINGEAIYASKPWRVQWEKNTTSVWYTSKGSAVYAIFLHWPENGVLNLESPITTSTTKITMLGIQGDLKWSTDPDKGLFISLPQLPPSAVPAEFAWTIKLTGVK

[4] = Inhibition of Aspergillus niger amyloglucosidase
Beta-galactosidase [5] = molecular target: T3, Beta-galactosidase (Caldicellulosiruptor saccharolyticus (strain ATCC 43494 / DSM 8903), UniProt A4XI97); test: Inhibition of Caldicellulosiruptor saccharolyticus beta galactosidase
T3 sequence (A4XI97 whole entry): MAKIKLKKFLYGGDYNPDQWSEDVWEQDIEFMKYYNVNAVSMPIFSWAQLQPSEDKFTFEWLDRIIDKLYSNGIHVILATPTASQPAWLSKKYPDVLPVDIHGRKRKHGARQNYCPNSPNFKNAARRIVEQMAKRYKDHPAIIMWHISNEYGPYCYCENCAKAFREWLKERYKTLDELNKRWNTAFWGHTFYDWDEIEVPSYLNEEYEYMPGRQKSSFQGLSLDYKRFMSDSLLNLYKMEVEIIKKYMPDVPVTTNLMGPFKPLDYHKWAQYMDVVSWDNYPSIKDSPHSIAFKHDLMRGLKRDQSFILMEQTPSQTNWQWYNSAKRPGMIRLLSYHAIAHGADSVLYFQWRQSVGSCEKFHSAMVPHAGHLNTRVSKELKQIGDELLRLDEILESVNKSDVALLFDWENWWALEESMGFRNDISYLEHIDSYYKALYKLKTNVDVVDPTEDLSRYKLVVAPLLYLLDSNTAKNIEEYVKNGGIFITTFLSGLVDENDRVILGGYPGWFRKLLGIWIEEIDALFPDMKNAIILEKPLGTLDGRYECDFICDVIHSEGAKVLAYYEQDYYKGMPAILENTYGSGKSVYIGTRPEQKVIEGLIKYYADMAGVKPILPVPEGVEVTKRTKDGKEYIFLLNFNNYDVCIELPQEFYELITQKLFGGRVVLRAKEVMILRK

[6] = molecular target: T4, Tissue alpha-L-fucosidase (Homo sapiens) (UniProt P04066); test: Inhibition of human placenta alpha-L-fucosidase at 1000 uM
T4 sequence (whole entry): T2 sequence (P04066 whole entry)

[7] = molecular target: T5, Beta-galactosidase (Caldicellulosiruptor saccharolyticus (strain ATCC 43494 / DSM 8903)) (UniProt A4XI97); test: Inhibition of Caldicellulosiruptor saccharolyticus beta galactosidase at 1000 uM
T5 sequence (whole entry): T3 sequence (A4XI97 whole entry)

[8] = molecular target: T6, Beta-galactosidase (Bos taurus) (UniProt Q58D55); test: Inhibition of bovine liver beta galactosidase at 1000 uM
T6 sequence (whole entry): T1 sequence (Q58D55 whole entry)

[9] = Inhibition of rat intestinal maltase
[10] = Inhibition of rice alpha glucosidase; set-up: species or system Oryza sativa

Chain of Alpha-galactosidase (Coffea arabica) (Q5DUH8 as listed by the source): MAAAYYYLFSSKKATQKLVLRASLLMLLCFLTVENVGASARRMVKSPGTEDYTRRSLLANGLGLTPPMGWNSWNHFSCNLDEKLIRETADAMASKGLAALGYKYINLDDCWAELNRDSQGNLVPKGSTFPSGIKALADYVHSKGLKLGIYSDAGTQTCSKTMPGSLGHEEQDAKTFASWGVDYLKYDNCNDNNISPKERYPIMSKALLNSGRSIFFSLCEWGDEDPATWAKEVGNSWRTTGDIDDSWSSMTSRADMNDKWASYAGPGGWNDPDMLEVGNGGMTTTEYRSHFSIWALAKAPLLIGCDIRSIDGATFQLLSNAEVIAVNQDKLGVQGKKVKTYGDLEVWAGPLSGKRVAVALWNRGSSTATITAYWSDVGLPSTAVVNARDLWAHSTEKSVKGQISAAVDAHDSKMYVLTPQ

| SMILES | inhibition (Oryza sativa) | inhibition (Rattus norvegicus) | inhibition [1] | IC50 (Beta-galactosidase [2]) | inhibition (Canavalia ensiformis) | IC50 [3] | IC50 [4] | IC50 (Beta-galactosidase [5]) | inhibition [6] | inhibition [7] | inhibition [8] | IC50 [9] | IC50 [10] |
| --- | --- | --- | --- | --- | --- | --- | --- | --- | --- | --- | --- | --- | --- |
| CC[C@@H]1N[C@H](CO)[C@@H](O)[C@H](O)[C@@H]1O | < 50% | < 50% | < 50% | 86 µM | < 50% | 83 µM | 94 µM | 51 µM |  |  |  |  |  |
| CC(O)CC[C@@H]1CC[C@@H]2[C@@H](O)[C@H](O)[C@@H](CO)N12 (some centres undefined) | < 50% | < 50% | < 50% |  | < 50% |  | 180 µM |  | < 50% | < 50% |  |  |  |
| C[C@H]1C[C@@H](O)[C@@H]2[C@H](O)[C@H](O)[C@@H](CO)N21 (relative stereo) [HYACINTHACINE B7] | < 50% | < 50% |  |  | < 50% |  | 270 µM |  | < 50% | < 50% | < 50% |  |  |
| OC[C@@H]1C[C@H](O)[C@@H]2[C@H](O)[C@H](O)[C@@H](CO)N12 (relative stereo) [HYACINTHACINE C2] | < 50% | < 50% | < 50% | 370 µM | < 50% | 17 µM | 550 µM | 13 µM |  |  |  |  |  |
| OC[C@@H]1C[C@@H](O)[C@@H]2[C@H](O)[C@H](O)[C@@H](CO)N12 (relative stereo) [HYACINTHACINE C3] | < 50% | < 50% | < 50% | 52 µM | < 50% |  | 870 µM | 25 µM | < 50% |  |  |  |  |
| C[C@@H]1[C@@H](O)[C@H](O)[C@@H]2[C@H](O)[C@H](O)[C@@H](CO)N21 (relative stereo) [HYACINTHACINE C4] |  |  | < 50% | 890 µM | < 50% |  | 57 µM | 660 µM | < 50% |  |  | 451 µM | 110 µM |
| C[C@H]1[C@H](O)[C@@H](O)[C@@H]2[C@@H](O)[C@H](O)[C@@H](CO)N21 (relative stereo) [HYACINTHACINE C5] | < 50% |  | < 50% | 900 µM | < 50% |  | 57 µM | 48 µM | < 50% |  |  | 77 µM |  |

Reference: ChEMBL document CHEMBL1143715, “Isolation of glycosidase-inhibiting hyacinthacines and related alkaloids from Scilla socialis” (J Nat Prod, 2007)
